Counter-ions that a name gives are not always drawn.
These compounds were tested against human GlyT1c transporter (Homo sapiens (Human), UniProt P48067) (assay: Radioligand binding assay using recombinant CHO cell membranes expressing human GlyT1). Conditions: examples 88-204, radioligand not specified by footnote, read-out: radioligand binding Kiapp.
Procedure: 2. Radioligand binding assays using recombinant CHO cell membranes expressing human GlyT1:
Radioligand binding to human GlyT1c transporter-expressing membranes was carried out as described in Mezler et al., Molecular Pharmacology 74:1705-1715, 2008.
More specifically, [^3H]-(R)-NPTS radioligand binding to human GlyT1c transporter-expressing membranes was measured in duplicate in a total volume of 200 μl in 96-well plates. To 100 μl of membrane suspension (yielding a final membrane protein concentration of 50 μg/ml) in assay buffer (120 mM NaCl, 2 mM KCl, 10 mM Hepes, 1 mM MgCl2, 1 mM CaCl2, pH 7.5) […] of [^3H]-(R)-NPTS (0.5 nM final) were added in assay buffer. For competition experiments 10 μl of buffer or unlabeled compound solution obtained from dilution series of test compounds in DMSO followed. An intermediate 1:10 dilution in assay buffer yielded a final DMSO concentration of 1%. Non-specific binding was determined in the presence of 10 μM Org24598 (or its racemate Org24461) for [^3H]-(R)-NPTS. After incubation at room temperature for 1 h, the incubation mixture was harvested (Tomtec Mach III U Harvester) through 96-well GF/B filter plates (PerkinElmer), presoaked for 1 h with 40 μl per well of 0.1% polyethylene-imine (PEI). After washing twice with ice-cold 50 mM Tris-HCl pH 7.4 buffer, drying and addition of 35 μl scintillator (BetaplateScint, PerkinElmer) per well followed. The radioactivity was determined by liquid scintillation spectrometry in a MicroBeta (PerkinElmer) plate counter.
Data analysis: For binding of [^3H]-(R)-NPTS to cell membranes, the calculation of Kd and Bmax values from the saturation binding assays and the IC50 values from the displacement binding was performed by iterative non-linear regression analysis adapted from the ‘Ligand’ program (Munson and Rodbard, 1980). Radioligand displacement curves in absence or in presence of increasing concentrations of tested compounds were fitted using a one-site fit and the apparent Ki values were calculated from the IC50 values using the Cheng-Prusoff equation (Cheng and Prusoff 1973).

Chain of human GlyT1c transporter (P48067 whole entry): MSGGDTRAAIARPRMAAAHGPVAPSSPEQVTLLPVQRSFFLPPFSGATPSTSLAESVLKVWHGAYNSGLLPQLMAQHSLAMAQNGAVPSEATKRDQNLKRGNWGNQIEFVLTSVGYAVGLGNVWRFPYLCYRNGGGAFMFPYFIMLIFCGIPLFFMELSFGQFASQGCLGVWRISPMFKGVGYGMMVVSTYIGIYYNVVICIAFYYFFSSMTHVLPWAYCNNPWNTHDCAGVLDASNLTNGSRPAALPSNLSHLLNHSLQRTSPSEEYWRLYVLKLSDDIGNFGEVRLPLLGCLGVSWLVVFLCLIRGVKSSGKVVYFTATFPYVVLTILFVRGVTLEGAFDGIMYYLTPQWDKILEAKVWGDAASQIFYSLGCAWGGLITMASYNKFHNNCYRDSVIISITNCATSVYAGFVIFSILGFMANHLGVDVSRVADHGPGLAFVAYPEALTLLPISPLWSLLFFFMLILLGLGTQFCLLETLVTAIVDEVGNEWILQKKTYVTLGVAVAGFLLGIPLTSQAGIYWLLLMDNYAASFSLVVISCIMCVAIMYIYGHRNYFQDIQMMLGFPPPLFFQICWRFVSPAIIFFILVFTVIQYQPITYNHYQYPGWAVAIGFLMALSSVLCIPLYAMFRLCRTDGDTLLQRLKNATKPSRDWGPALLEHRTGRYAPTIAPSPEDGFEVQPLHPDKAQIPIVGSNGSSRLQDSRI

Ki, ≤ 1 µM:
O=C(OCc1ccccc1)N1CCC(S(=O)(=O)NCCOc2ccc3c(c2)C(C2(c4ccc(Cl)cc4)CCC2)NCC3)C1 (stereo not drawn) [Example 170, Benzyl 3-{[2-({1-[1-(4-chlorophenyl)cyclobutyl]-1,2,3,4-tetrahydroisoquinolin-7-yl}oxy)ethyl]sulfamoyl}pyrrolidine-1-carboxylate]
CC(C)NCCS(=O)(=O)NCCOc1ccc2c(c1)C(C1(c3ccc(Cl)cc3)CCC1)NCC2 (stereo not drawn) [Example 169, N-[2-({1-[1-(4-Chlorophenyl)cyclobutyl]-1,2,3,4-tetrahydroisoquinolin-7-yl}oxy)ethyl]-2-(propan-2-ylamino)ethanesulfonamide]

Ki, ≤ 10 µM:
O=S(=O)(CC1CC1)NCc1ccc2c(c1)C(C1(c3ccccn3)CCC1)NCC2 (stereo not drawn) [Example 134, 1-Cyclopropyl-N-({1-[1-(pyridin-2-yl)cyclobutyl]-1,2,3,4-tetrahydroisoquinolin-7-yl}methyl)methanesulfonamide trifluoroacetate]
O=S(=O)(Nc1ccccc1Oc1ccc2c(c1)C(C1(c3ccc(Cl)cc3)CCC1)NCC2)c1cccnc1 (stereo not drawn) [Example 122, N-[2-({1-[1-(4-Chlorophenyl)cyclobutyl]-1,2,3,4-tetrahydroisoquinolin-7-yl}oxy)phenyl]pyridine-3-sulfonamide dihydrochloride]
O=S(=O)(Nc1ccc(Oc2ccc3c(c2)C(C2(c4ccc(Cl)cc4)CCC2)NCC3)nc1)c1cccnc1 (stereo not drawn) [Example 131, N-[6-({1-[1-(4-Chlorophenyl)cyclobutyl]-1,2,3,4-tetrahydroisoquinolin-7-yl}oxy)pyridin-3-yl]pyridine-3-sulfonamide trihydrochloride]
O=S(=O)(NCCOc1ccc2c(c1)C(C1(c3ccc(Cl)cc3)CCC1)NCC2)C1CCNCC1 (stereo not drawn) [Example 190, N-[2-({1-[1-(4-Chlorophenyl)cyclobutyl]-1,2,3,4-tetrahydroisoquinolin-7-yl}oxy)ethyl]piperidine-4-sulfonamide dihydrochloride]
CCCS(=O)(=O)Oc1ccc2c(c1)C(C1(c3cccc(F)c3)CCC1)NCC2 (stereo not drawn) [Example 120, 1-[1-(3-Fluorophenyl)cyclobutyl]-1,2,3,4-tetrahydroisoquinolin-7-yl propane-1-sulfonate hydrochloride]

Ki, ≤ 0.1 µM:
O=S(=O)(CCCF)NCc1ccc2c(c1)C(C1(c3ccc(Cl)cc3)CCC1)NCC2 (stereo not drawn) [Example 94, N-({1-[1-(4-Chlorophenyl)cyclobutyl]-1,2,3,4-tetrahydroisoquinolin-7-yl}methyl)-3-fluoropropane-1-sulfonamide hydrochloride]
Cn1cnc(S(=O)(=O)NCc2ccc3c(c2)C(C(C)(C)c2ccc(Cl)cc2)NCC3)c1 (stereo not drawn) [Example 102, N-({1-[2-(4-Chlorophenyl)propan-2-yl]-1,2,3,4-tetrahydroisoquinolin-7-yl}methyl)-1-methyl-1H-imidazole-4-sulfonamide hydrochloride]
NCCS(=O)(=O)NCCOc1ccc2c(c1)C(C1(c3ccc(Cl)cc3)CCC1)NCC2 (single isomer, unassigned) [Example 158, 2-Amino-N-[2-({1-[1-(4-chlorophenyl)cyclobutyl]-1,2,3,4-tetrahydroisoquinolin-7-yl}oxy)ethyl]ethanesulfonamide dihydrochloride]
NCCS(=O)(=O)NCCOc1ccc2c(c1)[C@H](C1(c3ccc(Cl)cc3)CCC1)NCC2 [Example 146, 2-Amino-N-[2-({(1S)-1-[1-(4-chlorophenyl)cyclobutyl]-1,2,3,4-tetrahydroisoquinolin-7-yl}oxy)ethyl]ethanesulfonamide dihydrochloride]

Ki, ≤ 100 µM:
Nc1n[nH]c(S(=O)(=O)NCCOc2ccc3c(c2)C(C2(c4ccc(Cl)cc4)CCC2)NCC3)n1 (stereo not drawn) [Example 203, 3-Amino-N-[2-({1-[1-(4-chlorophenyl)cyclobutyl]-1,2,3,4-tetrahydroisoquinolin-7-yl}oxy)ethyl]-1H-1,2,4-triazole-5-sulfonamide dihydrochloride]
